Laboratory results as given in patent US10196668B2, “Reagents and methods for screening MPS I, II, IIIA, IIIB, IVA, VI, and VII” (University of Washington through its Center for …, priority 2013, dated 2019).
Where a name gives a salt, the structure may show the parent alone.

Columns and labels:
[1] = target: T1, iduronate-2-sulfatase (MPS-II enzyme) (Homo sapiens, UniProt P22304); assay: MPS-II enzyme assay with dried blood spot punch, tandem mass spectrometry; type: biochemical
T1 construct: from tissue; host or cells: dried blood spot (3 mm punch)
T1 sequence (P22304 34-550): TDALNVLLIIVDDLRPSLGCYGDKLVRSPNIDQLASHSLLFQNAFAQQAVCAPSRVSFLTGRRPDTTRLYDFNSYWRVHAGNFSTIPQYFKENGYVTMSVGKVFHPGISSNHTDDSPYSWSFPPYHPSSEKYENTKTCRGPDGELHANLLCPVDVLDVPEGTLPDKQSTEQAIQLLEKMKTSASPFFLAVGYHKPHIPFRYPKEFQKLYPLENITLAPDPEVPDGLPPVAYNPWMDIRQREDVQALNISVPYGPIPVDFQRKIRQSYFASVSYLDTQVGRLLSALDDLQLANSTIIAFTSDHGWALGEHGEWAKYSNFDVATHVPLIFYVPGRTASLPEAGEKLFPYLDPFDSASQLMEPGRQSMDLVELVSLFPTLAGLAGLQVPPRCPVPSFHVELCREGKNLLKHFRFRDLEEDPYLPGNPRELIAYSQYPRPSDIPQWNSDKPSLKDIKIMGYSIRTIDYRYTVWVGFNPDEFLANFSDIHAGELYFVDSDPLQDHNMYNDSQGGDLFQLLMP
Method: The original and alternative MPS-II substrates were compared in side-by-side enzyme assays as follows: 1 mM substrate, 5 uM internal standard in 30 uL of buffer (100 mM ammonium formate, pH 4.0, 7.5 mM barium(II) acetate, 5.0 mM cerium(III) acetate). A 3 mm punch of a dried blood spot was added, and the mixtures were incubated with shaking for 16 hours at 37 deg C. The reactions were quenched by addition of 200 uL of 44 mM citric acid followed by addition of 400 uL ethyl acetate and 100 uL of water. After mixing up and down a few times with the pipet, the samples were centrifuged (10 min at 3000 rpm) to separate the liquid layers. A 200 uL portion of the upper ethyl acetate layer was transferred to a new well, and solvent was removed by evaporation with a stream of oil-free air. The residue was taken up in 100 uL of methanol/5 mM aqueous ammonium formate (80/20, v/v) and infused into the tandem mass spectrometer. The barium and cerium salts are present to precipitate free sulfate and phosphate present in the dried blood spot since these anions cause production inhibition of the MPS-II enzyme. The citric acid is used to acidify the mixture so that the carboxylate of the iduronic acid portion of the MPS-II product and internal standard is protonated and is extracted into ethyl acetate. […]

[2] = target: T2, alpha-L-iduronidase (MPS-I enzyme) (Homo sapiens, UniProt P35475); assay: MPS-I enzyme assay with dried blood spot punch, LC/MSMS; type: biochemical
T2 construct: from tissue; host or cells: dried blood spot (3 mm punch)
T2 sequence (P35475 28-653): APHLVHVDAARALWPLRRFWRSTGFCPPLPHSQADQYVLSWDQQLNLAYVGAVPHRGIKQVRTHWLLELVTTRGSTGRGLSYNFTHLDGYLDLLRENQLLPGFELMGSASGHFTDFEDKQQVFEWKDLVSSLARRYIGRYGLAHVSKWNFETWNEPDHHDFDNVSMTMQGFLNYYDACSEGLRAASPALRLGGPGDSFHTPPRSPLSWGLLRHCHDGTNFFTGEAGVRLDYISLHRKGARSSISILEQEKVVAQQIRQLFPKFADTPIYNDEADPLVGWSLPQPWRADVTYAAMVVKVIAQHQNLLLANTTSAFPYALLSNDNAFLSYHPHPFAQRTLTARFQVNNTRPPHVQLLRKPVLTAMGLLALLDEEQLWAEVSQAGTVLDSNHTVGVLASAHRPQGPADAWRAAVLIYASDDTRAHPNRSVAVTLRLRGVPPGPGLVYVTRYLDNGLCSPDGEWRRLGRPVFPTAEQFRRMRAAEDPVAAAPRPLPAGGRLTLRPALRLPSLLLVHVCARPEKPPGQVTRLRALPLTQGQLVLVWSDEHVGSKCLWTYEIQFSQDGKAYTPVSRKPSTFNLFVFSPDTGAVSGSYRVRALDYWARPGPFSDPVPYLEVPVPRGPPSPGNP
Method: The original and alternative MPS-I substrates were compared in side-by-side enzyme assays as follows: 0.5 mM substrate, 3.5 uM internal standard in 30 uL of buffer (100 mM ammonium formate, pH 4.0). A 3 mm punch of a dried blood spot was added, and the mixtures were incubated with shaking for 16 hours at 37 deg C. The reactions were quenched by addition 120 uL of acetonitrile. The wells were centrifuged, and 120 uL of supernatant was transferred to a new well. The sample was diluted by addition of 120 uL of water, and 10 uL was injected onto the LC/MSMS system. The LC and MS/MS conditions are as published (Spacil, Z., Tatipaka, H., Barcenas, M., Scott, C. R., Turecek, F., Gelb, M. H. (2012) “High-Throughput Assay of 9 Lysosomal Enzymes for Newborn Screening.” Clinical Chemistry., 59 (3), […]). A blank assay is also carried out in which a blood-free 3 mm punch of filter paper is substituted for the dried blood spot. The blank is incubated and processed as above.

[3] = tested on: N-acetylgalactosamine-6-sulfatase (GALNS); assay: GALNS (MPS-IVA) assay with beta-NGA and Z-PUG-NAc, UHPLC-MS/MS; type: biochemical, human
Method: (§1) Experiment 1. A 3 mm punch of a dried blood spot from a random newborn is incubated with 0.03 mL of assay cocktail consisting of 1 mM GALNS substrate in 50 mM ammonium formate pH 4.0 containing 7.5 mM barium acetate, 5.0 mM cerium acetate, 1 mM Z-PUG-NAc, and 0.01 mg of bacterial beta-N-acetylgalactosaminidase. The mixture also contains 0.005 mM internal standard. After 16 hrs at 37° C. with shaking, the mixture is quenched with 0.12 mL of acetonitrile and the sample plate is centrifuged to pellet the precipitate. Supernatant (0.12 mL) is transferred to a new plate, and 0.12 mL of water is added. The plate is placed on the autosampler of the UHPLC-MS/MS instrument (Waters Xevo TQ MS/MS with a Waters Acquity UHPLC system). A portion of the sample (0.01 mL) is injected, and the GALNS product (substrate minus sulfate), the internal standard, and the aglycones derived from the GALNS product and internal standard are quantified by multiple reaction monitoring (MS/MS). Note the internal standard added, like the GALNS product, is converted to its aglycone by the addition of bacterial beta-N-acetylgalactosaminidase.
(§2) Experiment 2. Experiment 2 is the same as Experiment 1 but uses a punch of filter paper (no blood). Most of the internal standard is converted to the aglycone showing that the added beta-NGA is working. The amount of aglycone is only 42,000, about 10-fold lower than that seen in the presence of blood. […] Furthermore when a dried blood spot from a confirmed Morquio A patient is used, the amount of aglycone is similar to that seen in the absence of blood (45,000) showing that the assay is working to detect only the GALNS present in blood from a non-affected individual.
(§3) Experiment 3. […] As expected, most of the internal standard is not converted to its aglycone, because is no beta-NAG and any hexosaminidase A coming from the blood is blocked by Z-PUG-NAc. The amount of GALNS product is 121,000 and the amount of aglycone is 42,900.
(§4) Experiment 4. Experiment 4 is the same as Experiment 3, but without blood. […] Thus, most of the 121,000 product counts in Experiment 3 is due to GALNS. The product counts in Experiment 3 cannot be due to hexosaminidase A, because only beta-NGA generates the aglycone. The amount of aglycone in Experiments 3 and 4 are similar, and this represents aglycone present in the GALNS substrate as a contaminant.
(§5) Experiment 5. […] Most of the internal standard is converted to its aglycone as expected because beta-NGA is present. The signal for aglycone is 1,350,000, much larger than in Experiment 1.
(§6) Experiment 6. Experiment 6 contains blood but no beta-NGA and no Z-PUG-NAc. The amount of GALNS product is 110,000 instead of 25,100 as in Experiment 5, which is due to the action of GALNS on the GALNS substrate. Because beta-NGA is absent, only a small amount of GALNS product is converted to aglycone, but the amount of aglycone remains high at 1,110,000. This is because of the action of hexosaminidase A in the blood on GALNS substrate in the absence of Z-PUG-NAc.
(§7) Experiments 7 and 8. Experiments 7 and 8 are with filter paper (no blood). […] As expected, most of the internal standard is converted to aglycone in Experiment 7, but not in Experiment 8. […] These can be removed by a further round of purification of GALNS substrate.

[4] = target: T3, N-acetylgalactosamine-6-sulfatase (GALNS) (Homo sapiens, UniProt P34059); assay: as above; type: biochemical
T3 construct: Representative assays use dried blood spots on newborn screening cards as a source of GALNS; from tissue; host or cells: dried blood spot from a random newborn (3 mm punch)
T3 sequence (P34059 27-522): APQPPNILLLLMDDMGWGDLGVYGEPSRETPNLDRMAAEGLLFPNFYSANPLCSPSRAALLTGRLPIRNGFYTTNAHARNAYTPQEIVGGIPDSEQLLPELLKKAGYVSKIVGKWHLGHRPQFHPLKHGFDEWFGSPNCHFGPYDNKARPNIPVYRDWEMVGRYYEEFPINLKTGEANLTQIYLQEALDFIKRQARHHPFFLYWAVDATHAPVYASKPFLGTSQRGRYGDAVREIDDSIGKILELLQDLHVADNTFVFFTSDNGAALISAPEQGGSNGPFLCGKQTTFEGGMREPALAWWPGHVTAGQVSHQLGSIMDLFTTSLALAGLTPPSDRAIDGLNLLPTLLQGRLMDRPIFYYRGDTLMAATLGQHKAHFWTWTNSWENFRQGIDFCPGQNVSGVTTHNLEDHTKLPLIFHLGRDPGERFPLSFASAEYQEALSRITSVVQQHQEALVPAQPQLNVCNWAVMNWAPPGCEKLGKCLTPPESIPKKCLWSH
Method: as §1, §2, §3, §4, §5, §6, §7

[5] = activity with dried blood spot punch to that with blood-free punch
[6] = Expt. 1: 3 mm dried blood spot punch, 1 mM Z-PUG-NAc, 0.01 mg beta-NGA
[7] = Expt. 2: 3 mm filter paper punch (no blood), 1 mM Z-PUG-NAc, 0.01 mg of bacterial enzyme
[8] = Expt. 3: 3 mm dried blood spot punch, 1 mM Z-PUG-NAc, no beta-NGA
[9] = Expt. 4: 3 mm filter paper punch (no blood), 1 mM Z-PUG-NAc, no beta-NGA
[10] = Expt. 5: 3 mm dried blood spot punch, 0.01 mg beta-NGA, no Z-PUG-NAc
[11] = Expt. 6: 3 mm dried blood spot punch, Nothing added (no beta-NGA, no Z-PUG-NAc)
[12] = Expt. 7: 3 mm filter paper punch (no blood), 0.01 mg beta-NGA, no Z-PUG-NAc
[13] = Expt. 8: 3 mm filter paper punch (no blood), Nothing added

## CCCCC(=O)N(CCCCCCNC(=O)c1ccccc1)CCC(=O)Nc1ccc(OC2OC(C(=O)O)C(O)C(O)C2OS(=O)(=O)O)cc1 (stereo not shown) [Alternative MPS-II]
[1]; 1 mM substrate, 3 mm dried blood spot punch, pH 4.0, 16 hours at 37 deg C
  Enzymatic Activity: 6 umole/hr/L blood
[1]; [5]
  blood-no blood assay ratio: 53

## CC(=O)N(CCCCCCNC(=O)c1ccccc1)CCC(=O)Nc1ccc(OC2OC(C(=O)O)C(O)C(O)C2O)cc1 (stereo not shown) [Alternative MPS-I]
[2]; 0.5 mM substrate, 3 mm dried blood spot punch, pH 4.0, 16 hours at 37 deg C
  Enzymatic Activity: 2.5 umole/hr/L blood
[2]; [5]
  blood-no blood assay ratio: 34

## [2H]c1c([2H])c([2H])c(C(=O)NCCCCCN(CCC(=O)Nc2ccc(OC3OC(CO)C(O)C(O)C3NC(C)=O)cc2)C(=O)CCCC)c([2H])c1[2H] (stereo not shown) [GALNS internal standard]
[3]; [6]
  GALNS internal standard peak area: 278
  internal standard aglycone peak area: 54,400
[3]; [7]
  GALNS internal standard peak area: 3,290
  internal standard aglycone peak area: 15,900
[3]; [8]
  GALNS internal standard peak area: 23,500
  internal standard aglycone peak area: 940
[3]; [9]
  GALNS internal standard peak area: 14,700
  internal standard aglycone peak area: 412
[3]; [10]
  GALNS internal standard peak area: 852
  internal standard aglycone peak area: 49,200
[3]; [11]
  GALNS internal standard peak area: 17,900
  internal standard aglycone peak area: 17,100
[3]; [12]
  GALNS internal standard peak area: 1,920
  internal standard aglycone peak area: 22,200
[3]; [13]
  GALNS internal standard peak area: 12,100
  internal standard aglycone peak area: 648

## CCCCC(=O)N(CCCCCNC(=O)c1ccccc1)CCC(=O)Nc1ccc(OC2OC(COS(=O)(=O)O)C(O)C(O)C2NC(C)=O)cc1 [GALNS substrate, Sodium ((2R,3R,4R,5R,6S)-5-acetamido-6(4(3(N (5-benzamidopentyl)-pentanamido)propanamido)phenoxy)-3,4-dihydroxytetrahydro-2H-pyran-2-yl)methyl sulfate]
[4]; [6]
  GALNS product (substrate without sulfate) peak area: 46,100
  aglycone peak area (product without sugar): 411,000
[4]; [8]
  GALNS product (substrate without sulfate) peak area: 121,000
[4]; [10]
  GALNS product (substrate without sulfate) peak area: 25,100
[4]; [11]
  GALNS product (substrate without sulfate) peak area: 110,000
[3]; [7]
  GALNS product (substrate without sulfate) peak area: 422
  aglycone peak area (product without sugar): 42,000
[3]; [8]
  aglycone peak area (product without sugar): 42,900
[3]; [9]
  GALNS product (substrate without sulfate) peak area: 753
  aglycone peak area (product without sugar): 22,700
[3]; [10]
  aglycone peak area (product without sugar): 1,350,000
[3]; [11]
  aglycone peak area (product without sugar): 1,110,000
[3]; [12]
  GALNS product (substrate without sulfate) peak area: 253
  aglycone peak area (product without sugar): 19,800
[3]; [13]
  GALNS product (substrate without sulfate) peak area: 820
  aglycone peak area (product without sugar): 14,500
[3]; dried blood spot from a confirmed Morquio A patient, 1 mM Z-PUG-NAc, 0.01 mg beta-NGA
  amount of aglycone (peak area): 45,000
